Active and inactive are the calls of the source. For most assays here, no stated cut-off is given here; in the data, actives have a measured EC50 and inactives only a lower limit.
Key:
[1] = cytotoxicity toward NIH3T3 fibroblasts, dose response, counter-screen, cell-based, ATP luminescence, mouse fibroblasts (AID 2010); format: functional;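 further: cells exposed to compound for about 90 hours before reading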
[2] = inhibitors of intracellular T. cruzi replication, confirmation, NIH3T3 host cells, beta-gal luminescence (AID 2044); format: functional, cell-based;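 further: intracellular parasites grown in NIH/3T3 mouse fibroblasts as host cells; luminescent beta-galactosidase reporter signal from transgenic T. cruzi replicating inside host cells; inhibitors lower the luminescence signal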
[3] = target: T1, Streptokinase A (Streptococcus pyogenes serotype M1, UniProt P10520); assay: S. pyogenes streptokinase expression inhibitors, potency, dose response, plasminogen activation absorbance, OD405 (AID 1914); format: functional, Streptococcus pyogenes M1 GAS;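 further: secreted streptokinase activity via plasminogen activation per viability signal from cell pellet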
T1 sequence (P10520 whole entry): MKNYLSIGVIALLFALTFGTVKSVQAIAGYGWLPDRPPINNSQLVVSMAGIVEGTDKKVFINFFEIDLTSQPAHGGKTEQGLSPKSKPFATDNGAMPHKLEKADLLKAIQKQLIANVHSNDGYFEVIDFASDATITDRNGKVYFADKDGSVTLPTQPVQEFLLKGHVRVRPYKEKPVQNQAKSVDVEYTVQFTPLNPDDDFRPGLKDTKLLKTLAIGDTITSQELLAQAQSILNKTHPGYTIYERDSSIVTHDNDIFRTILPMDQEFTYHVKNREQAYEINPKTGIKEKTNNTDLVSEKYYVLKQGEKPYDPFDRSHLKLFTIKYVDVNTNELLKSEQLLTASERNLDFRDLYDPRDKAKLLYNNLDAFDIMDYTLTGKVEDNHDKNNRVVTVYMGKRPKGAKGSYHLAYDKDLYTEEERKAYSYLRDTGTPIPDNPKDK

[4] = Luminescence Cell-Based Dose Retest to Confirm Inhibitors of Cancer Stem Cells. [Related pubchem assays (depositor defined):AID2717, AID2721]; format: functional, Homo sapiens; conditions: Homo sapiens
[5] = tested on: Streptococcus; assay: Group A Streptococcus viability loss, dose response, counter-screen for streptokinase expression inhibitor project, luminescence, BacTiterGlo (AID 1915); format: functional, organism-based;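 further: potency for reduction of bacterial viability or growth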
[6] = tested on: Streptococcus sp. 'group A'; assay: growth inhibition of control SK(-) GAS strain, dose response, counter-screen for streptokinase expression inhibitor project, luminescence, kanamycin, BacTiterGlo, confirmation (AID 1900); format: functional, organism-based
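Wherever AC50 is given: cells exposed to compound for roughly 70 hours or longer before luminescence read.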

Row | Structure (SMILES) | EC50 [1] | EC50 [2] | EC50 [5] | EC50 [6] | further results
1 | O=C1CC(NS(=O)(=O)c2ccc([N+](=O)[O-])cc2)CN1c1cccc(F)c1 (stereo not drawn) | > 60 µM (not active) | 1.08 µM (active) |  |  | 
2 | O=C(CSc1nnnn1-c1ccc(O)cc1)N1N=C(c2ccc3ccccc3c2)CC1c1ccccc1 (stereo not drawn) | > 60 µM (not active) | 2.08 µM (active) |  |  | 
3 | CCOC(=O)c1ccc(NC(=S)NN)cc1 |  |  |  |  | EC50 [3]: > 150 µM (not active)
4 | COc1cc(OC)cc(C(=O)NC(=S)N2CCCCC2c2cccnc2)c1 (stereo not drawn) | > 60 µM (not active) | 0.769 µM (active) |  |  | 
5 | Cc1cc(C)c(S(=O)(=O)c2cc(F)ccc2C)c(Cl)n1 | > 60 µM (not active) | 1.39 µM (active) |  |  | 
6 | C=CCn1c(=O)c(C(=O)NCCc2ccccc2)c(O)c2ccccc21 |  |  |  |  | AC50 [4]: 5.39 µM (active)
7 | O=C(c1cc([N+](=O)[O-])cc([N+](=O)[O-])c1)N1CCN(Cc2ccc3c(c2)OCO3)CC1 | > 60 µM (not active) | 0.306 µM (active) |  |  | 
8 | O=C(Nc1ccc(Cl)cc1)Nc1ccccc1Sc1ncc([N+](=O)[O-])s1 |  |  |  |  | AC50 [4]: 4.23 µM (active)
9 | COc1cccc2sc3cc(C#CC4(O)CCCCC4)ccc3c(=O)c12 |  |  |  |  | AC50 [4]: 2.4 µM (active)
10 | CCc1ccc(OCCCCN(C)Cc2ccccc2)cc1 | > 60 µM (not active) | 0.213 µM (active) |  |  | 
11 | CCCCOc1ccc(C(=O)CCN2CCOCC2)cc1 | > 60 µM (not active) | 0.836 µM (active) |  |  | 
12 | CCCCn1c(O)c(N=NC(=O)c2ccccc2NS(=O)(=O)c2cccs2)c2ccccc21 |  |  | 68.3 µM (active) | 21.8 µM (active) | EC50 [3]: > 150 µM (not active)
13 | N#Cc1c(N)nc(Sc2ccc(Cl)cc2)c(C#N)c1-c1ccccc1Cl |  |  | > 150 µM (not active) | 4.24 µM (active) | EC50 [3]: 13.2 µM (active)
14 | C/C(=N\Nc1nc2ccccc2s1)c1ccc2c(c1)OCO2 |  |  | 65.6 µM (active) | 16.7 µM (active) | EC50 [3]: > 150 µM (not active)
15 | O=C(N/N=C\c1ccc(F)cc1)c1ccc(Cn2cc(Br)c([N+](=O)[O-])n2)o1 | > 60 µM (not active) | 0.761 µM (active) |  |  | 
16 | CCCOc1ccc(-c2nc(SCc3ccccc3)nc(O)c2C#N)cc1OC | 17.8 µM (active) | 3.11 µM (active) |  |  | 
17 | Cc1ccc(-c2cc(C(F)F)n3ncc(C(=O)N4CCCCC4c4cccnc4)c3n2)cc1 (stereo not drawn) | > 60 µM (inconclusive) | 0.708 µM (active) |  |  | 
18 | CCOC(=O)c1ccc(NC(S)=NN)cc1 |  |  | > 150 µM (not active) | 9.57 µM (active) | 
19 | Oc1cccc(NC(=S)N=Nc2c(O)[nH]c3ccc(Br)cc23)c1 |  |  | 4.54 µM (active) | 1.22 µM (active) | 
20 | CC1CC(NC(=O)c2c(O)n3ccsc3nc2=O)CC(C)(C)C1 (stereo not drawn) |  |  | > 150 µM (not active) | 11.3 µM (active) | EC50 [3]: 14.5 µM (active)
21 | Cc1cc(N2CCN(c3ccccc3Cl)CC2)n2cc(-c3ccccc3)nc2n1 |  |  | 12 µM (active) | 11.5 µM (active) | EC50 [3]: > 150 µM (not active)

Source: ChEMBL document CHEMBL1201862, “PubChem BioAssay data set” (2004)
